From ChEMBL document CHEMBL2150933 (J Med Chem, 2012)

Experiments:
[1] = Plasma concentration in CD1 mouse at 1 mg/kg, iv administered as single dose measured after 5 mins; assay type: ADME, organism-based; parameters: dose 1 mg/kg, route intravenous
[2] = Plasma concentration in CD1 mouse at 1 mg/kg, iv administered as single dose measured after 120 mins; assay type: ADME, organism-based; parameters: dose 1 mg/kg, route intravenous
[3] = Toxicity in iv dosed CD1 mouse administered Q2D for 8 days; assay type: organism-based; details: CD1, mouse, in vivo
[4] = Plasma concentration in CD1 mouse at 1 mg/kg, iv administered as single dose measured after 30 mins; assay type: ADME, organism-based; parameters: dose 1 mg/kg, route intravenous

In the case of `CO[C@H](C(=O)[C@@H](O)[C@@H](C)O)[C@@H]1Cc2cc3cc(O[C@H]4C[C@@H](O[C@H]5C[C@@H](O)[C@H](O)[C@@H](C)O5)[C@H](O)[C@@H](C)O4)c(C)c(O)c3c(O)c2C(=O)[C@H]1O[C@H]1C[C@@H](O[C@H]2C[C@@H](O[C@H]3C[C@](C)(O)[C@H](O)[C@@H](C)O3)[C@@H](O)[C@@H](C)O2)[C@H](O)[C@@H](C)O1` [PLICAMYCIN], the concentration at 5 min [1] is reported as 2700 nM, the concentration at 2 h [2] is reported as under 100 nM and the MTD at 192 h [3] is reported as 0.6 mg/kg. For the same compound, the concentration at 0.5 h [4] was 200 nM.
